Like-named read-outs stand apart in the source and are kept apart here.
What was measured:
Test in all cases: 3H-TdR incorporation at 72 hr (24 hr drug exposure, wash, 48 hr)
[1] = test system: H-460; format: cell-based, Human; details: Homo sapiens, NCI-H460, read-out: IC50 in μM (3H-TdR incorporation at 72 hr) H-460 24 h, H-460 Human Lung Carcinoma, 72 hr assay
Description: (§1) Exposition of 24 hr to drug, wash, incubated for another 48 hr (total of 72 hr assay)
(§2) (3H-Thymidine Incorporation Assay)

[2] = test system: MCF-7; format: cell-based, Human; details: Homo sapiens, MCF7, read-out: IC50 in μM (3H-TdR incorporation at 72 hr) MCF-7 24 h, MCF-7 Human Breast Carcinoma, 72 hr assay
Description: as §1, §2

[3] = test system: SF-268; format: cell-based, Human
Description: as §1, §2

[4] = test system: CCRF-CEM; format: cell-based; details: Homo sapiens, CCRF-CEM, read-out: IC50 in μM (3H-TdR incorporation at 72 hr) CCRF-CEM 24 h, CCRF-CEM T-cell Leukemia, 72 hr assay
Description: as §1, §2

[5] = test system: CEM/dCK-; format: cell-based; details: for IC50: Homo sapiens, CCRF-CEM, read-out: IC50 in μM (3H-TdR incorporation at 72 hr) CEM/dCK- 24 h, CCRF-CEM deoxycytidine kinase-deficient, 24 h drug exposure, 72 hr assay; for Factor* (Resistance Factor = Ratio of dCK- on Wild-type CCRF-CEM): ratio of IC50 CEM/dCK- to IC50 CCRF-CEM
Description: as §1, §2

[6] = Homo sapiens, SF-268, read-out: IC50 in μM (3H-TdR incorporation at 72 hr) SF-268 24 h, SF-268 Human Central Nervous System Tumor, 24 h drug exposure, 72 hr assay

Compound	IC50 [1] [µM]	IC50 [2] [µM]	IC50 [3, 6] [µM]	IC50 [4] [µM]	IC50 [5] [µM]	Factor* (Resistance Factor = Ratio of dCK- on Wild-type CCRF-CEM) [5]	IC50 [3] [µM]
COc1ccc(C(=O)Nc2ccn([C@@H]3CO[C@H](CO)O3)c(=O)n2)cc1 [Compound 175, N-[1-(2-HYDROXYMETHYL- [1,3]DIOXOLAN-4-YL)-2- OXO-1,2-DIHYDRO- PYRIMIDIN-4-YL]-4- METHOXY-BENZAMIDE]	6.3	3.1	32	3.5	> 100	>29	
COC(OC)(OC)OC[C@H]1OC[C@@H](n2ccc(N)nc2=O)O1 [Compound 177, 4-AMINO-1-(2- TRIMETHOXYMETHOXYMETHYL -[1,3]DIOXOLAN-4-YL)- 1H-PYRIMIDIN-2-ONE]	0.19	0.22	0.92	0.095	> 100	>1052	
CCOC[C@H]1OC[C@@H](n2ccc(N)nc2=O)O1 [Compound 178, (S,S)-4-AMINO-1-(2′- ETHOXYMETHYL- [1,3]DIOXOLAN-4′-YL)- 1H-PYRIMIDIN-2-ONE]	88	5.8	41	25	> 100	>4	
C=CCOC[C@H]1OC[C@@H](n2ccc(N)nc2=O)O1 [Compound 179, (S,S)-1-(2′- ALLYLOXYMETHYL- [1,3]DIOXOLAN-4′-YL)-4- AMINO-1H-PYRIMIDIN-2- ONE]	1.7	2.8	0.56	2.4	> 100	>42	
O=C(Nc1ccn([C@@H]2CO[C@H](CO)O2)c(=O)n1)OCc1ccc([N+](=O)[O-])cc1 [Compound 182, [1-(2-HYDROXYMETHYL- [1,3]DIOXOLAN-4-YL)-2- OXO-1,2-DIHYDRO- PYRIMIDIN-4-YL]- CARBAMIC ACID 4-NITRO- BENZYL ESTER]	0.13	0.22	0.21	0.047	> 100	>2100	
Cl.Nc1ccn([C@@H]2CO[C@H](COC(=O)OCc3ccc([N+](=O)[O-])cc3)O2)c(=O)n1 [Compound 183, CARBONIC ACID 4-(4- AMINO-2-OXO-2H- PYRIMIDIN-1-YL)- [1,3]DIOXOLAN-2- YLMETHYL ESTER 4-NITRO- BENZYL ESTER HYDROCHLORIDE SALT]	0.037	0.038	0.12	0.018	45	2,500	
Nc1ccn([C@@H]2CO[C@H](COC3(c4ccccc4)OC4OC(COC(=O)c5ccccc5)C(OC(=O)c5ccccc5)C(OC(=O)c5ccccc5)C4O3)O2)c(=O)n1 (stereo partly drawn) [Compound 184, 3,4,6-TRI-O-BENZOYL- 1,2-O-(1-(4-AMINO-2- OXO-2H-PYRIMIDIN-1-YL)- [1,3]DIOXOLAN-2- YLMETHYLOXY)-BENZYL)- □^˜D-GLUCOPYRANOSe]	0.94	0.92	1.1	0.81	40	49	
O=c1nc(NS(=O)(=O)c2ccc([N+](=O)[O-])cc2[N+](=O)[O-])ccn1[C@@H]1CO[C@H](CO)O1 [Compound 188, N-[1-(2-HYDROXYMETHYL- [1,3]DIOXOLAN-4-YL)-2- OXO-1,2-DIHYDRO- […]-4-YL]-2,4- DINITRO- BENZENESULFONAMIDE]	0.097	3		0.79	> 100		2.4
CC(C)(C)OC(=O)NCCCCCC(=O)Nc1ccn([C@@H]2CO[C@H](COC(=O)CCCCCNC(=O)OC(C)(C)C)O2)c(=O)n1 [Compound 192, 6-TERT!- BUTOXYCARBONYLAMINO- HEXANOIC ACID 4-[4-(6- TERT- BUTOXYCARBONYLAMINO- HEXANOYLAMINO)-2-OXO- 2H-PYRIMIDIN-1-YL]- [1,3]DIOXOLAN-2-YL METHYL ESTER]	0.29	0.0016	0.4	0.0084	48	5,714	
CC(C)(C)OC(=O)NCCCCCC(=O)Nc1ccn([C@@H]2CO[C@H](CO)O2)c(=O)n1 [Compound 193, {5-[1-(2-HYDROXYMETHYL- [1,3]DIOXOLAN-4-YL)-2- OXO-1,2-DIHYDRO- PYRIMIDIN-4- YLCARBAMOYL]-PENTYL}- CARBAMIC ACID TERT- BUTYL ESTER]	0.64	0.16	2	0.059	> 100	>1695	
CC(C)(C)OC(=O)NCCCCCC(=O)OC[C@H]1OC[C@@H](n2ccc(N)nc2=O)O1 [Compound 194, 6-TERT!- BUTOXYCARBONYLAMINO- HEXANOIC ACID 4-(4- AMINO-2-OXO-2H- PYRIMIDIN-1-YL)- [1,3]DIOXOLAN-2- YLMETHYL ESTER]	0.011	0.004	0.041	0.0024	10	4167	
COc1ccc(C(OC)(OC)OC[C@H]2OC[C@@H](n3ccc(N)nc3=O)O2)cc1 [Compound 195, 4-AMINO-1-{2- [DIMETHOXY-(4-METHOXY- PHENYL)-METHOXYMETHYL]- [1,3]DIOXOLAN-4-YL}- 1#H!-PYRIMIDIN-2-ONE]	1.1	1.9	1.5	0.064	> 100	>1563	
CCOC(OCC)(OCC)OC[C@H]1OC[C@@H](n2ccc(N)nc2=O)O1 [Compound 199, 4-Amino-1-(2-triethoxymethoxymethyl-[1,3]dioxolan-4-yl)-1H-pyrimidin-2-one]	0.033	0.21	0.0078	0.0094	> 100	>10638	
COC(OC)(OC[C@H]1OC[C@@H](n2ccc(N)nc2=O)O1)c1ccc(C)cc1 [Compound 200, 4-AMINO-1-[2- (DIMETHOXY-#P!-TOLYL- METHOXYMETHYL)- [1,3]DIOXOLAN-4-YL]- 1#H!-PYRIMIDIN-2-ONE]	0.3	1.1	0.12	0.31	72	232	
CCOC(=O)/C=C/OC[C@H]1OC[C@@H](n2ccc(N)nc2=O)O1 [Compound 201, 3-[4-(4-AMINO-2-OXO-2H- PYRIMIDIN-1-YL)- [1,3]DIOXOLAN-2-YL METHOXY]-ACRYLIC ACID ETHYL ESTER]	17	18	7.3	14	> 100	>7	
Nc1ccn([C@@H]2CO[C@H](COC(=S)Sc3ccccc3)O2)c(=O)n1 [Compound 205, DITHIOCARBONIC ACID O- [4-(4-AMINO-2-OXO-2H- PYRIMIDIN-1-YL)- [1,3]DIOXOLAN-2-YL METHYL] ESTER S-PHENYL ESTER]	0.28	0.9	0.1	0.26	> 100	>385	
Nc1ccn([C@@H]2CO[C@H](COC(=O)c3ccccc3Cl)O2)c(=O)n1 [Compound 206, 2-CHLORO-BENZOIC ACID 4-(4-AMINO-2-OXO-2#H!- PYRIMIDIN-1-YL)- [1,3]DIOXOLAN-2-YL METHYL ESTER]	0.012	0.056	0.043	0.009	80	8,889	
Nc1ccn([C@@H]2CO[C@H](COC(=O)c3ccccc3Cc3ccccc3)O2)c(=O)n1 [Compound 220, BIPHENYL-2-CARBOXYLIC ACID 4-(4-AMINO-2-OXO- 2H-PYRIMIDIN-1-YL)- [1,3]DIOXOLAN-2-YL METHYL ESTER]	0.0034	0.029	0.042	0.0035	> 100	>28571	
O=C(Nc1ccn([C@@H]2CO[C@H](CO)O2)c(=O)n1)C1(c2ccccc2)CCCCC1 [Compound 225, 1-PHENYL- CYCLOHEXANECARBOXYLIC ACID [1-(2- HYDROXYMETHYL- [1,3]DIOXOLAN-4-YL)-2- OXO-1,2-DIHYDRO- PYRIMIDIN-4-YL]-AMIDE]	11	11	43	0.88	> 100	>113	
CC(C)(CCCCCCc1ccccc1)C(=O)Nc1ccn([C@@H]2CO[C@H](CO)O2)c(=O)n1 [Compound 227, 2,2-DIMETHYL-8-PHENYL- OCTANOIC ACID [1-(2- HYDROXYMETHYL- [1,3]DIOXOLAN-4-YL)-2- OXO-1,2-DIHYDRO- PYRIMIDIN-4-YL]-AMIDE]	0.84	0.012	3	0.043	22	512	

From patent US20030013660A1, “Dioxolane analogs for improved inter-cellular delivery” (Shire BioChem Inc., priority 2000, published 2003)
